The source of these data is ChEMBL document CHEMBL1909046, “DrugMatrix in vitro pharmacology data”.

The target in test [1] is Nitric oxide synthase 1 (Rattus norvegicus, UniProt P29476). It is filed as tissue-based, Cerebellum. Further: in other assays of this panel Not Active means under 50% inhibition at 10 µM.
Test [2] is described as follows: DRUGMATRIX: Calcium Channel Type L, Dihydropyridine radioligand binding (ligand: [3H] Nitrendipine). It is filed as cell membranes, Rattus norvegicus, Wistar, Cerebral cortex, Membrane. As to conditions: Not Active = under 50% inhibition at 10 µM.
In test [3] the target is Adenosine receptor A2a (Homo sapiens, UniProt P29274). The test is described as follows: DRUGMATRIX: Adenosine A2A radioligand binding (ligand: […]). It is filed as cell membranes, Membrane. To be noted: hek293; Not Active = under 50% inhibition at 10 µM.
Test [4] deals with T1, Muscarinic acetylcholine receptor M4 (Homo sapiens, UniProt P08173).
T1 sequence (P08173 whole entry): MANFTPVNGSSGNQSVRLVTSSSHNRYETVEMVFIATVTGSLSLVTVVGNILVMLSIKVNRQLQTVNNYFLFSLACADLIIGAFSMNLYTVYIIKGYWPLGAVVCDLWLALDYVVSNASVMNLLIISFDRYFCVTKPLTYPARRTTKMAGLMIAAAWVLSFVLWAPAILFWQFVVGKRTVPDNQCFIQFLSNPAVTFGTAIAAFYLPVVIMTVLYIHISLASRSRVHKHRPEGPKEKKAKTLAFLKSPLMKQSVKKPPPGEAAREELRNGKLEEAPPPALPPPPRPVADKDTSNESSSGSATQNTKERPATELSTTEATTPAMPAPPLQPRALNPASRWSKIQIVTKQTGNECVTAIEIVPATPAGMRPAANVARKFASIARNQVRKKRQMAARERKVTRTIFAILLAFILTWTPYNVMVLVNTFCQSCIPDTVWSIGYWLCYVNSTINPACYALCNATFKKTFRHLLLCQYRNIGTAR
The test is classed as cell membranes, CHO-K1, Membrane.

For test [5], the target named is T2, Alpha-1A adrenergic receptor (Rattus norvegicus, UniProt P43140).
T2 sequence (P43140 whole entry): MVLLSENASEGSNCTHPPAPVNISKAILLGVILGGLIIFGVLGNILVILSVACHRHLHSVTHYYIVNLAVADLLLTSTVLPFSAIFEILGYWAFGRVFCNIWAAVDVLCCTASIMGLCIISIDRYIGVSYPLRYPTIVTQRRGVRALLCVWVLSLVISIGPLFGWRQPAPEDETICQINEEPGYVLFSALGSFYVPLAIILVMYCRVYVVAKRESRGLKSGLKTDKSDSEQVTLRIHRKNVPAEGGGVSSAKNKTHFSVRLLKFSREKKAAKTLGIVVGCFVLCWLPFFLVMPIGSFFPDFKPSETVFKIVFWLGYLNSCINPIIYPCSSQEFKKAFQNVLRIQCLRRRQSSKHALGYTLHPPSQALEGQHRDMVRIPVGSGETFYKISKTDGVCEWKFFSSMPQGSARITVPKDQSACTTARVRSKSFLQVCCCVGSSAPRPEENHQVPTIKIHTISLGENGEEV
The test is described as follows: DRUGMATRIX: Alpha-1A adrenergic receptor radioligand binding (ligand: prazosin). It is filed as cell membranes, Wistar, Submaxillary gland, Membrane. As to conditions: Not Active = under 50% inhibition at 10 µM; for Ki: read-out: Ki.

Test [6] concerns the target Sodium-dependent noradrenaline transporter (Homo sapiens, UniProt P23975). The test is described as follows: DRUGMATRIX: Norepinephrine Transporter radioligand binding (ligand: [125I] RTI-55). The test is classed as cell membranes, MDCK, Membrane. As to conditions: mdck; Not Active = under 50% inhibition at 10 µM.

Adenosine receptor A2a, sequence (P29274 whole entry): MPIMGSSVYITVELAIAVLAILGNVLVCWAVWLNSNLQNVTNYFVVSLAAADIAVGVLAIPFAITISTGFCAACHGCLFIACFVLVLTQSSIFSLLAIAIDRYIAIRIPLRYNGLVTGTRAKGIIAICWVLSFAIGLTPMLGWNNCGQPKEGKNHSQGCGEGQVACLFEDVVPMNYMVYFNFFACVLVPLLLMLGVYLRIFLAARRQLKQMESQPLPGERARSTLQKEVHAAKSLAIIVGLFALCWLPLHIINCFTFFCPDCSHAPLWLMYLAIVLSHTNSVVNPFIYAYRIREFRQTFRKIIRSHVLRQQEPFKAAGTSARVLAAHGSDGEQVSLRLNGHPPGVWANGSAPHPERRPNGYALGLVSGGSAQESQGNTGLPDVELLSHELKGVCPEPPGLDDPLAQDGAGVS
Nitric oxide synthase 1, sequence (P29476 whole entry): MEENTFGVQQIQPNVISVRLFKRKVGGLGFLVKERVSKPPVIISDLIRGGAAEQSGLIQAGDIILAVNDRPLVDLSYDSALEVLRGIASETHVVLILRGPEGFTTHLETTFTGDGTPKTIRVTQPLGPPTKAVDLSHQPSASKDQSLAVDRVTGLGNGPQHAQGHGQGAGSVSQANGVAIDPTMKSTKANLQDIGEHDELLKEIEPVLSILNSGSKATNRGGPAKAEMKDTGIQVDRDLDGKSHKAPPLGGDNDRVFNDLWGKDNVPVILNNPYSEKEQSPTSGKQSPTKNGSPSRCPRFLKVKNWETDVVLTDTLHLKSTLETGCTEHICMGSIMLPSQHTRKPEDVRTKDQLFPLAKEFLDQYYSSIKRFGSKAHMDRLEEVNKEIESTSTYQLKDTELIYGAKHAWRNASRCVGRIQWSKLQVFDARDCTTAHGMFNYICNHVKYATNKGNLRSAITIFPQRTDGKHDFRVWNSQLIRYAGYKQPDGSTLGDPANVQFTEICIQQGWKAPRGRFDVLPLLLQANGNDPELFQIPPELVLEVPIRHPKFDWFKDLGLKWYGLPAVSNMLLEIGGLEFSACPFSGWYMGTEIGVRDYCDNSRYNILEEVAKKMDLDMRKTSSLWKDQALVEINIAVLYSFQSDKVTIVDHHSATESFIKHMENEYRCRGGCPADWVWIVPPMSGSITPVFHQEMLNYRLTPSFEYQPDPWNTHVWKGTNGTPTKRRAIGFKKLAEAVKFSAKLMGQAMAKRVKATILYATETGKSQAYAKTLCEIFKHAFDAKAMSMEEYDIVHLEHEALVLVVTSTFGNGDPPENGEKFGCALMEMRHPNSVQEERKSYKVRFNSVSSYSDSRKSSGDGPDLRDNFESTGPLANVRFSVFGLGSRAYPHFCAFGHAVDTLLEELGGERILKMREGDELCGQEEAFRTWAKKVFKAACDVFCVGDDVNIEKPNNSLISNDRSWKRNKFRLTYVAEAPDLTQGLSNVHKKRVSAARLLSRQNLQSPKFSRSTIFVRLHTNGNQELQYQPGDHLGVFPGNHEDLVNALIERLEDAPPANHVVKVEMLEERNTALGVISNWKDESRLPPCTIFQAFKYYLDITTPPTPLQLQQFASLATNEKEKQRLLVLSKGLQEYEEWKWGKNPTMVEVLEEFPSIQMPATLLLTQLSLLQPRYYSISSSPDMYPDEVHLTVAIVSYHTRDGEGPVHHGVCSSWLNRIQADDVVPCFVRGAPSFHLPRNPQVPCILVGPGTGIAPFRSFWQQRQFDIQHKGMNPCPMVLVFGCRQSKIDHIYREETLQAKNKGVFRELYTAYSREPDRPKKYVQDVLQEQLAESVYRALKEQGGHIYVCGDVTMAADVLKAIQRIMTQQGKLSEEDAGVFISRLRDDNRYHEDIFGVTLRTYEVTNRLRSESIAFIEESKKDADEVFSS
Sodium-dependent noradrenaline transporter, sequence (P23975 whole entry): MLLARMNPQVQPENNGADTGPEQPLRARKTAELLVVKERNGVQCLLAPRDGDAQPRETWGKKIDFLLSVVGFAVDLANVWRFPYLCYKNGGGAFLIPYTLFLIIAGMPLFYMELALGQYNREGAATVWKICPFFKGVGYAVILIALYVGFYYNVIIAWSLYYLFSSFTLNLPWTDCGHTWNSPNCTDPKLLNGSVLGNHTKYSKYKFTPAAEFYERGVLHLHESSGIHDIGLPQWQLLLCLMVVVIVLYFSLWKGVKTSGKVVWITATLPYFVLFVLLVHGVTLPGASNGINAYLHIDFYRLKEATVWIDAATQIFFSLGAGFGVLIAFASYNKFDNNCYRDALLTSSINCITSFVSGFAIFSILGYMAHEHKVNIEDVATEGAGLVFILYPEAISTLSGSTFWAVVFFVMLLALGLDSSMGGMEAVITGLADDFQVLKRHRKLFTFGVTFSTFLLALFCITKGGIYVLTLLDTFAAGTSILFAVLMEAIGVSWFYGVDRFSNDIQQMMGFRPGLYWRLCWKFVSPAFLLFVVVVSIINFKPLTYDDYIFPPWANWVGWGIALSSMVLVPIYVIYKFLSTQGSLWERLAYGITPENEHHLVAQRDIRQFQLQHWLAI

As to `CC(C)[C@@]1(NC(=O)[C@@H]2C[C@@H]3c4cccc5[nH]cc(c45)C[C@H]3N(C)C2)O[C@@]2(O)[C@@H]3CCCN3C(=O)[C@H](Cc3ccccc3)N2C1=O.CS(=O)(=O)O` [DIHYDROERGOCRISTINE MESYLATE], the IC50 entry in test [1] is “Not Active”; in test [2], “Not Active”; in test [3], “Not Active”; in test [4] (cho-k1), “Not Active”; in test [5] (read-out: IC50), 1.62 nM; in test [6], “Not Active”. Also, the Ki entry is “Not Active” in test [2] and 0.656 nM in test [5].

Turning to `CC(=O)O[C@@]12CO[C@@H]1C[C@H](O)[C@@]1(C)C(=O)[C@H](O)C3=C(C)[C@@H](OC(=O)[C@H](O)[C@@H](NC(=O)OC(C)(C)C)c4ccccc4)C[C@@](O)([C@@H](OC(=O)c4ccccc4)[C@H]21)C3(C)C.O.O.O` [DOCETAXEL], the IC50 result in test [1], in test [2], in test [3], in test [4] (cho-k1), in test [5] and in test [6] was “Not Active” throughout. In addition, the Ki entry in test [2] is recorded as “Not Active”.

For `COc1cc2nc(N3CCN(C(=O)C4COc5ccccc5O4)CC3)nc(N)c2cc1OC` (stereo not given) [DOXAZOSIN], the IC50 entry was “Not Active” in test [1]; “Not Active” in test [2]; “Not Active” in test [3]; “Not Active” in test [4] (cho-k1); 1.55 nM in test [5] (read-out: IC50); “Not Active” in test [6]. Besides, the figures for the Ki entry in test [2] and in test [5] were “Not Active” and 0.628 nM, respectively.

As for `C[C@H]1c2cccc(O)c2C(=O)C2=C(O)[C@]3(O)C(=O)C(C(N)=O)=C(O)[C@@H](N(C)C)[C@@H]3[C@@H](O)[C@@H]21.O` [DOXYCYCLINE], the concentration for half-maximal inhibition (IC50) result in test [1], in test [2], in test [3], in test [4] (cho-k1), in test [5] and in test [6] was “Not Active” each time. Also, in test [2], the Ki result is recorded as “Not Active”.

In the case of `O=C(CCCN1CC=C(n2c(=O)[nH]c3ccccc32)CC1)c1ccc(F)cc1` [DROPERIDOL], the IC50 entry is “Not Active” in test [1]; “Not Active” in test [2]; “Not Active” in test [3]; 3850 nM in test [4] (read-out: IC50); 1.65 nM in test [5] (read-out: IC50); “Not Active” in test [6]. Further, the Ki result in test [2] is “Not Active”; in test [4] (read-out: Ki), 537 nM; in test [5] it was 0.669 nM.

For the compound `CC(C)[C@H]1C(=O)N2CCC[C@H]2[C@]2(O)O[C@](NC(=O)[C@@H]3C=C4c5cccc6[nH]cc(c56)C[C@H]4N(C)C3)(C(C)C)C(=O)N12` [ERGOCORNINE], the half-inhibitory concentration (IC50) result in test [1] is “Not Active”; in test [2] it was “Not Active”; in test [3], “Not Active”; in test [4] (cho-k1), “Not Active”; in test [5] (read-out: IC50), 11 nM; in test [6], “Not Active”. For the same compound, the Ki entry in test [2] is “Not Active”; in test [5], 4.47 nM.

As for `C[C@]12CC[C@@H]3c4ccc(O)cc4CC[C@H]3[C@@H]1CCC2=O` [ESTRONE], the IC50 entry in test [1], in test [2], in test [3], in test [4] (cho-k1), in test [5] and in test [6] was “Not Active” throughout. Moreover, in test [2], the Ki result is recorded as “Not Active”.

Turning to `OC(Cn1cncn1)(Cn1cncn1)c1ccc(F)cc1F` [FLUCONAZOLE], the IC50 entry in test [1], in test [2], in test [3], in test [4] (cho-k1), in test [5] and in test [6] was “Not Active” in each case. The Ki entry in test [2] is “Not Active”.

As for `CC(C)C(=O)Nc1ccc([N+](=O)[O-])c(C(F)(F)F)c1` [FLUTAMIDE], the IC50 entry in test [1], in test [2], in test [3], in test [4] (cho-k1), in test [5] and in test [6] was “Not Active” throughout. For the same compound, in test [2], the Ki result is “Not Active”.

For `N=C(N)NCCN1CCCCCCC1` [GUANETHIDINE], the 50% inhibitory concentration (IC50) entry in test [1], in test [2], in test [3], in test [4] (cho-k1), in test [5] and in test [6] was “Not Active” throughout. The inhibition constant Ki result in test [2] is on record as “Not Active”.

`CC1(C)O[C@@H]2C[C@H]3[C@@H]4CCC5=CC(=O)CC[C@]5(C)[C@@]4(F)[C@@H](O)C[C@]3(C)[C@]2(C(=O)CCl)O1` [HALCINONIDE]: the IC50 entry in test [1], in test [2], in test [3], in test [4] (cho-k1), in test [5] and in test [6] was “Not Active” in each case. In test [2], the Ki result is on record as “Not Active”.

As to `O=c1[nH]c(=O)n([C@H]2C[C@H](O)[C@@H](CO)O2)cc1I` [IDOXURIDINE], the IC50 result in test [1], in test [2], in test [3], in test [4] (cho-k1), in test [5] and in test [6] was “Not Active” in each case. Also, the Ki result in test [2] is “Not Active”.

`CC1Cc2ccccc2N1NC(=O)c1ccc(Cl)c(S(N)(=O)=O)c1` (stereo not given) [INDAPAMIDE]: the IC50 result in test [1], in test [2], in test [3], in test [4] (cho-k1), in test [5] and in test [6] was “Not Active” throughout. For the same compound, the Ki entry in test [2] was “Not Active”.

For `Nc1nc(N)nc(-c2cc(Cl)ccc2Cl)n1.O=C(O)/C=C\C(=O)O` [IRSOGLADINE MALEATE], the IC50 entry in test [1], in test [2], in test [3], in test [4] (cho-k1), in test [5] and in test [6] was “Not Active” in each case. In addition, in test [2], the Ki entry is given as “Not Active”.

As for `CCC(C)n1ncn(-c2ccc(N3CCN(c4ccc(OCC5COC(Cn6cncn6)(c6ccc(Cl)cc6Cl)O5)cc4)CC3)cc2)c1=O` (stereo not given) [ITRACONAZOLE], the IC50 result in test [1], in test [2], in test [3], in test [4] (cho-k1), in test [5] and in test [6] was “Not Active” in each case. In addition, the Ki result in test [2] is given as “Not Active”.

As to `CCCCN1CCCC[C@H]1C(=O)Nc1c(C)cccc1C` [LEVOBUPIVACAINE], the half-inhibitory concentration (IC50) entry in test [1], in test [2], in test [3], in test [4] (cho-k1), in test [5] and in test [6] was “Not Active” in each case. The Ki entry in test [2] is listed as “Not Active”.

With `CCCCc1nc(Cl)c(CO)n1Cc1ccc(-c2ccccc2-c2nnn[nH]2)cc1` [LOSARTAN], the IC50 entry in test [1], in test [2], in test [3], in test [4] (cho-k1), in test [5] and in test [6] was “Not Active” throughout. In test [2], the Ki entry is listed as “Not Active”.

In the case of `Sc1ncnc2nc[nH]c12` [MERCAPTOPURINE ANHYDROUS], the IC50 result in test [1], in test [2], in test [3], in test [4] (cho-k1), in test [5] and in test [6] was “Not Active” throughout. Further, in test [2], the Ki result is recorded as “Not Active”.

On to `C[C@](N)(Cc1ccc(O)c(O)c1)C(=O)O` [METHYLDOPA], for which the IC50 entry in test [1], in test [2], in test [3], in test [4] (cho-k1), in test [5] and in test [6] was “Not Active” in each case. Besides, the inhibition constant Ki entry in test [2] is recorded as “Not Active”.

For the compound `C[C@]12CCC(=O)C=C1CC[C@@H]1[C@@H]2CC[C@@]2(C)[C@H]1CC[C@]2(C)O` [METHYLTESTOSTERONE], the half-maximal inhibitory concentration (IC50) result in test [1], in test [2], in test [3], in test [4] (cho-k1), in test [5] and in test [6] was “Not Active” throughout. The inhibitory constant (Ki) result in test [2] is reported as “Not Active”.

In general, IC50 refers to the midpoint of a concentration-inhibition curve. For orientation: Ki means the equilibrium dissociation constant of an inhibitor or competing ligand from its target.
